The nature of data set [1]: Cytotoxicity assay (LDH release) in HepG2_LSSprom cells. The class given is cell-based. The following applies: human, HepG2 LSSprom cells, 24 h treatment, LDH release. As to the method: (§1) HepG2_LSSprom cells (SwitchGear Genomics, cat# C711010L) were cultured in DMEM with 10% of fetal bovine serum (FBS), supplemented with Puromycin (1 μg/mL), 1% Penicillin/Streptomycin (Pen-Strep), 37° C., humidified, 95% air and 5% CO2. Culture media was refreshed every 2 or 3 days. Cells were used between passage number 6-12.
For cytotoxicity assays, cells were plated out at 20,000 cells/well in transparent 96 well plates in DMEM plus 10% FBS and 1% Pen-Strep without puromycin. After 1 day, cells were treated with Compound by diluting in culture medium without FBS to a final concentration of 0.625, 1.25, 2.5, 3.75, 5 and 10 μM. Compound was prepared by dilutions of 10 mM stock aliquots. As a negative control culture medium was used without FBS plus DMSO. As maximum LDH release control (Lysis control) a lysis buffer provided by the kit manufacturer was used. Treatments with Compound were maintained for 6 h, or 24 h, in cell culture medium without serum until the cytotoxicity assay was started.
The cytotoxicity assay was performed according to the manufacturer's instructions. As maximum LDH release control (Lysis control) 3 wells per plate were treated with 10 μL of lysis buffer 45 min before the treatment was over. Briefly, after the 6 h, or 24 h, of treatment, 50 μL of media from each well was transferred to a new 96-well plate. To the transferred media, 50 μL of reconstituted substrate mix was added. The plates were covered from light and incubated at RT for 10 min. Then, 50 μL of stop solution was added to each well. The plates were then read using a Synergy 4 (Biotek) equipment recording the absorbance at 490 nm.
(§2) Five independent experiments were carried out for both luciferase and cytotoxicity assay. In each experiment, three wells were use per condition and the results are represented as means±SEM.
For cytotoxicity assay, Lysis control was taken as 100%/o of LDH release. The vehicle values were taken as basal LDH release and were subtracted to all the treatments (including vehicle itself) having this value as 0% of LDH release. The LDH release for the treatments was calculated respect to the 100% of LDH release of Lysis control normalized against vehicle. All the negatives values were taken as 0% of cytotoxicity. The graphics were made using the Graph Prism ver. 6.05 software.
(In general: LDH leaks from cells whose membrane has failed.)

Data set [2] has as its system SREBP-2 transcriptional activity (SREBP2 cleavage) in HepG2_LSSprom cells. Put plainly: Luciferase reporter driven by a SREBP-2 specific promoter in HepG2_LSSprom cells. The format is cell-based. To be noted: 24 h, read-out: SREBP2 Cleavage (IC50 μM) 24 h. As to the method:
Dose response effects were measured of Compounds on the transcriptional activity of a Luciferase reporter driven by a SREBP-2 specific promoter in HepG2_LSSprom cells.
as §1
For luminescence assays, cells were plated out at 20,000 cells/well in white 96 well plates in DMEM plus 10% FBS and 1% Pen-Strep without puromycin. After 1 day, cells were treated with Compound by diluting the drug in culture medium without FBS to a final concentration of 0.625, 1.25, 2.5, 3.75, 5 and 10 μM. Drug was prepared by dilutions of 10 mM stock aliquots. As control was used culture medium without FBS plus DMSO. Treatments with Compound were maintained for 6 h, or 24 h, until the luciferase assay was carried out.
After 6 h of treatments with Compound, the luciferase assay was performed. Briefly, the assay solution (buffer+substrate) was prepare just prior to use. To each well 100 μL of assay solution was added. The 96-well plate was then gently mix for 2 min and incubated for 30 min at RT protected from light. The luminescence was read using a Synergy 4 (Biotek) equipment recording luminescence with sensibility set up at 150.
as §2
For luciferase assay, Vehicle (no treatment) was taken as 100% of luciferase activity. This value represents the SREBP-2 transcriptional activity for the vehicle condition and was taken as 100% of SREBP-2 cleaved. The percentage for each treatment was calculated normalizing against the vehicle control. The graphics were made using the GraphPad Prism ver. 6.05 software. Half of maximal inhibitory concentration (IC50) of the effect of Compound on SREBP was obtain by nonlinear fit regression of mean normalized values vs. Compound concentration using the log(inhibitor) vs. response−Variable slope (four parameters) tool.

Where [3] appears, read: 24 h treatment, HepG2_LSSprom cells.

The structures appear in SMILES notation. Read-outs that look alike come from different tables or passages of the source. A value given as a limit tells only on which side of the number the result lay.

By IC50 is commonly meant the concentration needed to halve the response being measured. `CCN(CCNC(C)=O)C(=O)c1ccc(-c2csc(-c3ccnc(C(C)(C)C)c3)c2)c(Cl)c1` [Compound 47, N-[2-(1-{4-[5-(2-tert-butylpyridin-4-yl)thiophen-3-yl]-3-chlorophenyl}-N-ethylformamido)ethyl]acetamide]: the IC50 at 24 h in data set [1] was above 10 µM. Also, the IC50 in data set [2] (setting [3]) was 0.33 µM.
On to `CC(C)(C)c1cc(-c2cc(-c3ccc(C(=O)N4CCCC(O)C4)cc3Cl)cs2)ccn1` (centres unmarked) [Compound 48, 1-{4-[5-(2-tert-butylpyridin-4-yl)thiophen-3-yl]-3-chlorobenzoyl}piperidin-3-ol], for which, in data set [1], the IC50 at 24 h was above 10 µM. In addition, the IC50 in data set [2] (setting [3]) was 0.26 µM.
The like results for `CC(C)(C)c1cc(-c2cc(-c3ccc(C(=O)N4CCC[C@@H](O)C4)cc3Cl)cs2)ccn1` [Compound 48a, (R)-(4-(5-(2-(tert-butyl)pyridin-4-yl)thiophen-3-yl)-3-chlorophenyl)(3-hydroxypiperidin-1-yl)methanone] were, in that order, above 10 µM and 0.31 µM.
Taken in the same sequence, the figures for `CC(C)(C)c1cc(-c2cc(-c3ccc(C(=O)N4CCC[C@H](O)C4)cc3Cl)cs2)ccn1` [Compound 48b, (S)-(4-(5-(2-(tert-butyl)pyridin-4-yl)thiophen-3-yl)-3-chlorophenyl)(3-hydroxypiperidin-1-yl)methanone] were above 10 µM and 0.12 µM.
The like results for `CC(C)(C)c1cc(-c2cc(-c3ccc(C(=O)Nc4cccc(O)c4)cc3Cl)cs2)ccn1` [Compound 49, 4-[5-(2-tert-butylpyridin-4-yl)thiophen-3-yl]-3-chloro-N-(3-hydroxyphenyl) benzamide] were, in that order, above 10 µM and above 1 µM.
As to `C[C@@H]1CN(C(=O)c2ccc(-c3csc(-c4ccnc(C(C)(C)C)c4)c3)c(Cl)c2)C[C@H](C)O1` [Compound 50, (2R,6S)-4-{4-[5-(2-tert-butylpyridin-4-yl)thiophen-3-yl]-3-chlorobenzoyl}-2,6-dimethylmorpholine], the IC50 at 24 h in data set [1] was above 10 µM. The half-inhibitory concentration (IC50) in data set [2] (setting [3]) is 1.3 µM.
Taken in the same sequence, the figures for `CC(C)N1CCc2cc(-c3csc(-c4ccnc(C(C)(C)C)c4)c3)c(Cl)cc2C1=O` [Compound 52, 6-[5-(2-tert-butylpyridin-4-yl)thiophen-3-yl]-7-chloro-2-(propan-2-yl)-1,2,3,4-tetrahydroisoquinolin-1-one] were above 10 µM and 1.7 µM.
For `Cc1cc(C)c(CNC(=O)c2ccc(-c3csc(-c4ccnc(C(C)(C)C)c4)c3)c(Cl)c2)c(=O)[nH]1` [Compound 53, 4-[5-(2-tert-butylpyridin-4-yl)thiophen-3-yl]-3-chloro-N-[(4,6-dimethyl-2-oxo-1,2-dihydropyridin-3-yl)methyl]benzamide], the IC50 at 24 h in data set [1] was above 10 µM. Further, the IC50 in data set [2] (setting [3]) came out at 3.9 µM.
The like results for `CC(C)(C)c1cc(-c2cc(-c3ccc(C(=O)Nc4ccc(F)cc4)cc3Cl)cs2)ccn1` [Compound 54, 4-[5-(2-tert-butylpyridin-4-yl)thiophen-3-yl]-3-chloro-N-(4-fluorophenyl) benzamide] were, in that order, above 10 µM and 0.54 µM.
The like results for `CC(C)(C)C(=O)NC1CCCN(C(=O)c2ccc(-c3csc(-c4ccnc(C(C)(C)C)c4)c3)c(Cl)c2)C1` (centres unmarked) [Compound 55, N-(1-{4-[5-(2-tert-butylpyridin-4-yl)thiophen-3-yl]-3-chlorobenzoyl}piperidin-3-yl)-2,2-dimethylpropanamide] were, in that order, above 10 µM and 0.36 µM.
Consider `CC(C)(C)c1cc(-c2cc(-c3ccc(C(=O)N4CCCC(NC(=O)NC5CC5)C4)cc3Cl)cs2)ccn1` (centres unmarked) [Compound 56, 1-(1-{4-[5-(2-tert-butylpyridin-4-yl)thiophen-3-yl]-3-chlorobenzoyl}piperidin-3-yl)-3-cyclopropylurea], for which the IC50 at 24 h in data set [1] was above 10 µM. For the same molecule, in data set [2] (setting [3]), the IC50 was 1 µM.
As to `CC(C)(C)c1cc(-c2cc(-c3ccc(C(=O)N4CCC(O)CC4)cc3Cl)cs2)ccn1` [Compound 57, 1-{4-[5-(2-tert-butylpyridin-4-yl)thiophen-3-yl]-3-chlorobenzoyl}piperidin-4-ol], in data set [1], the IC50 at 24 h was above 10 µM. Also, the half-inhibitory concentration (IC50) in data set [2] (setting [3]) was 0.55 µM.
In the case of `CC(C)(C)c1cc(-c2cc(-c3ccc(C(=O)Nc4cccnc4)cc3Cl)cs2)ccn1` [Compound 58, 4-[5-(2-tert-butylpyridin-4-yl)thiophen-3-yl]-3-chloro-N-(pyridin-3-yl)benzamide], in data set [1], the IC50 at 24 h was above 10 µM. Also, in data set [2] (setting [3]), the half-inhibitory concentration (IC50) was found to be 1.4 µM.
Taken in the same sequence, the figures for `CC(C)(C)c1cc(-c2cc(-c3ccc(C(=O)N4CCC(NS(C)(=O)=O)CC4)cc3Cl)cs2)ccn1` [Compound 59, N-(1-{4-[5-(2-tert-butylpyridin-4-yl)thiophen-3-yl]-3-chlorobenzoyl}piperidin-4-yl)methanesulfonamide] were above 10 µM and 1.6 µM.
The like results for `CN(C(=O)c1ccc(-c2csc(-c3ccnc(C(C)(C)C)c3)c2)c(Cl)c1)c1ncco1` [Compound 60, 4-[5-(2-tert-butylpyridin-4-yl)thiophen-3-yl]-3-chloro-N-methyl-N-(1,3-oxazol-2-yl)benzamide] were, in that order, above 10 µM and 3.5 µM.
The like results for `CC(C)(C)c1cc(-c2cc(-c3ccc(C(=O)NCC(=O)N4CCOCC4)cc3Cl)cs2)ccn1` [Compound 61, 4-[5-(2-tert-butylpyridin-4-yl)thiophen-3-yl]-3-chloro-N-[2-(morpholin-4-yl)-2-oxoethyl]benzamide] were, in that order, above 10 µM and 1.5 µM.
As to `CN1C2CCC1CC(NC(=O)c1ccc(-c3csc(-c4ccnc(C(C)(C)C)c4)c3)c(Cl)c1)C2` (centres unmarked) [Compound 62], in data set [1], the IC50 at 24 h is above 10 µM. Besides, the IC50 in data set [2] was above 3 µM.
As to `CCOC(=O)NC1CCN(C(=O)c2ccc(-c3csc(-c4ccnc(C(C)(C)C)c4)c3)c(Cl)c2)CC1` [Compound 63, ethyl N-(1-{4-[5-(2-tert-butylpyridin-4-yl)thiophen-3-yl]-3-chlorobenzoyl}piperidin-4-yl)carbamate], in data set [1], the 50% inhibitory concentration (IC50) at 24 h was above 10 µM. In data set [2] (setting [3]), the half-maximal inhibitory concentration (IC50) was 2.1 µM.
The like results for `CC(C)(C)OC(=O)NC1CCCN(C(=O)c2ccc(-c3csc(-c4ccnc(N5CCOCC5)c4)c3)c(Cl)c2)C1` (centres unmarked) [Compound 64, tert-butyl N-[1-(3-chloro-4-{5-[2-(morpholin-4-yl)pyridin-4-yl]thiophen-3-yl}benzoyl)piperidin-3-yl]carbamate] were, in that order, above 10 µM and 0.4 µM.
The like results for `NC1CCCN(C(=O)c2ccc(-c3csc(-c4ccnc(N5CCOCC5)c4)c3)c(Cl)c2)C1` (centres unmarked) [Compound 65, 1-(3-chloro-4-(5-[2-(morpholin-4-yl)pyridin-4-yl]thiophen-3-yl)benzoyl)piperidin-3-amine] were, in that order, above 10 µM and 2.4 µM.
The like results for `Cc1sc(-c2ccnc(C(C)(C)C)c2)cc1-c1ccc(C(=O)N2CCCC(N)C2)cc1Cl` (centres unmarked) [Compound 66, 1-{4-[5-(2-tert-butylpyridin-4-yl)-2-methylthiophen-3-yl]-3-chlorobenzoyl}piperidin-3-amine] were, in that order, above 10 µM and above 10 µM.
For `Cc1sc(-c2ccnc(C(C)(C)C)c2)cc1-c1ccc(C(=O)Nc2ccccc2)cc1Cl` [Compound 67, 4-[5-(2-tert-butylpyridin-4-yl)-2-methylthiophen-3-yl]-3-chloro-N-phenyl benzamide], in data set [1], the IC50 at 24 h was above 10 µM. Moreover, in data set [2], the 50% inhibitory concentration (IC50) came out at 4.7 µM.
